{
  "source": "ChEMBL document CHEMBL3856266",
  "about": "“Melodinine V, an antitumor bisindole alkaloid with selective cytotoxicity from Melodinus henryi” (Bioorg Med Chem Lett, 2016)",
  "key": {"[1]": {"assay": "Cytotoxicity against human HT-29 cells assessed as reduction in cell viability after 48 hrs by MTT assay", "assay_type": "functional, cell-based", "settings": "HT-29, 48 h"}, "[2]": {"assay": "Cytotoxicity against human PANC1 cells assessed as reduction in cell viability after 48 hrs by MTT assay", "assay_type": "functional, cell-based", "settings": "PANC-1, 48 h"}, "[3]": {"assay": "Cytotoxicity against human MCF7 cells assessed as reduction in cell viability after 48 hrs by MTT assay", "assay_type": "functional, cell-based", "settings": "MCF7, 48 h"}, "[4]": {"assay": "(§1) Antiproliferative activity against human HT-29 cells after 48 hrs by [methyl-3H]-thymidine incorporation assay", "assay_type": "functional, cell-based", "settings": "HT-29, 48 h"}, "[5]": {"tested_on": "HT-29", "assay": "as §1", "assay_type": "functional, cell-based"}, "[6]": {"tested_on": "HT-29", "assay": "Induction of apoptosis in human HT-29 cells assessed as increase in histone associated DNA fragmentation after 48 hrs by ELISA", "assay_type": "functional, cell-based"}, "[7]": {"assay": "Cell cycle arrest in human HT-29 cells assessed as accumulation in G1 phase at 9.8 uM after 24 hrs by propidium iodide staining-based flow cytometry", "assay_type": "functional"}, "[8]": {"assay": "Cytotoxicity against human HS27 cells assessed as reduction in cell viability up to 100 uM after 48 hrs by MTT assay", "assay_type": "toxicity, cell-based", "settings": "hs27, 48 h"}, "[9]": {"assay": "Cell cycle arrest in human HT-29 cells assessed as accumulation in G1 phase at 7.4 uM after 24 hrs by propidium iodide staining-based flow cytometry", "assay_type": "functional"}},
  "note": "The source made the active and inactive calls. The rule behind the calls is not given here.",
  "data": [
    {"smiles": "CC[C@]12CCCN3CCc4c(n(c5ccccc45)[C@@H](c4ccc(O)c5c4N=C4CC[C@]6(CC)CCCN7CC[C@@]45[C@@H]76)C1)[C@@H]32", "values": [
      {"measurement": "IC50", "setting": "[1]", "value": 4.9, "unit": "µM"},
      {"measurement": "IC50", "setting": "[2]", "value": 28.1, "unit": "µM"},
      {"measurement": "IC50", "setting": "[3]", "value": 54.5, "unit": "µM"},
      {"measurement": "IC50", "setting": "[4]", "value": 2.3, "unit": "µM"},
      {"measurement": "inhibition", "setting": "[5]", "value": "Dose-dependent effect"},
      {"measurement": "Activity", "setting": "[6]", "value": "Dose-dependent effect"},
      {"measurement": "Activity", "setting": "[7]", "value": "Active"},
      {"measurement": "Activity", "setting": "[8]", "value": "Non-Toxic"},
      {"measurement": "Activity", "setting": "[9]", "value": "Active"}
    ]}
  ]
}
